Experimental data published in the supplement of paper PMC10307832.

How the values were obtained:
Assay in all cases: relative viability (nuclei count vs DMSO), 5 days (fraction); higher = more cells survive
Motesanib + Alpelisib = compound: CC1(C)CNc2cc(NC(=O)c3cccnc3NCc3ccncc3)ccc21 [Motesanib] + Cc1nc(NC(=O)N2CCC[C@H]2C(N)=O)sc1-c1ccnc(C(C)(C)C(F)(F)F)c1 [Alpelisib] (partner 2 µM)
Summary of the method: (§1)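 Lung cancer cell lines in 1536-well plates got either a single drug or a fixed anchor-drug dose together with five library-drug doses (not always all listed) in √10 steps, by pin tool, on the day after seeding. Nuclei were counted after 5 days, and relative viability is the treated-to-vehicle ratio of nuclei counts. Values are medians of duplicate plates.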

[1] = compound: C[C@@]1(C(=O)Nc2ccc(F)nc2)CCCN1c1nc(Nc2cc(C3CC3)n[nH]2)c2cccn2n1 + COc1cc2c(Oc3ccc(NC(=O)C4(C(=O)Nc5ccc(F)cc5)CC4)cc3F)ccnc2cc1OCCCN1CCOCC1 [Foretinib] (partner 0.25 µM)
Summary of the method: as §1

[2] = compound: C[C@@]1(C(=O)Nc2ccc(F)nc2)CCCN1c1nc(Nc2cc(C3CC3)n[nH]2)c2cccn2n1 + N=C(N)NC(=N)NCCc1ccccc1 [Phenformin] (partner 250 µM)
Summary of the method: as §1

Motesanib + Dasatinib = compound: CC1(C)CNc2cc(NC(=O)c3cccnc3NCc3ccncc3)ccc21 [Motesanib] + Cc1nc(Nc2ncc(C(=O)Nc3c(C)cccc3Cl)s2)cc(N2CCN(CCO)CC2)n1 [Dasatinib] (partner 0.075 µM)
Summary of the method: as §1

| Cell Line | relative viability (Motesanib + Alpelisib; first compound 0.01 µM) | relative viability (Motesanib + Alpelisib; first compound 0.03162 µM) | relative viability (Motesanib + Alpelisib; first compound 0.1 µM) | relative viability (Motesanib + Alpelisib; first compound 0.3162 µM) | relative viability (Motesanib + Alpelisib; first compound 1 µM) | relative viability ([1]; first compound 0.04 µM) | relative viability ([1]; first compound 0.1265 µM) | relative viability ([1]; first compound 0.4 µM) | relative viability ([1]; first compound 1.265 µM) | relative viability ([2]; first compound 0.04 µM) | relative viability ([2]; first compound 0.1265 µM) | relative viability ([2]; first compound 0.4 µM) | relative viability ([2]; first compound 1.265 µM) | relative viability (Motesanib + Dasatinib; first compound 0.01 µM) | relative viability (Motesanib + Dasatinib; first compound 0.03162 µM) | relative viability (Motesanib + Dasatinib; first compound 0.1 µM) | relative viability (Motesanib + Dasatinib; first compound 0.3162 µM) | relative viability (Motesanib + Dasatinib; first compound 1 µM) |
| --- | --- | --- | --- | --- | --- | --- | --- | --- | --- | --- | --- | --- | --- | --- | --- | --- | --- | --- |
| NCI-H441 | 0.699 | 0.998 | 1.03 | 0.636 | 0.847 | 0.631 | 0.46 | 0.599 | 0.707 | 0.405 | 0.35 | 0.369 | 0.264 | 0.594 | 0.627 | 0.604 | 0.613 | 0.642 |
| NCI-H460 | 0.567 | 0.495 | 0.484 | 0.424 | 0.478 | 1.06 | 0.939 | 1.03 | 0.87 | 0.53 | 0.436 | 0.36 | 0.239 | 0.406 | 0.481 | 0.525 | 0.63 | 0.626 |
| NCI-H520 | 0.864 | 0.899 | 0.879 | 0.871 | 0.768 | 1.01 | 0.612 | 0.796 | 0.768 | 0.819 | 0.301 | 0.487 | 0.416 | 0.208 | 0.196 | 0.21 | 0.226 | 0.218 |
| NCI-H596 | 0.489 | 0.417 | 0.496 | 0.542 | 0.498 | 0.731 | 0.752 | 0.649 | 0.972 | 0.649 | 0.69 | 0.738 | 0.763 | 0.651 | 0.543 | 0.534 | 0.563 | 0.53 |
| NCI-H647 | 1.02 | 1.21 | 1.1 | 1.33 | 1.09 | 1.18 | 1.08 | 0.886 | 1.17 | 0.651 | 0.488 | 0.346 | 0.458 | 0.194 | 0.169 | 0.151 | 0.191 | 0.221 |
| NCI-H650 | 0.925 | 0.85 | 1.14 | 1.09 | 1.08 | 1.02 | 0.738 | 0.819 | 0.782 | 0.452 | 0.405 | 0.406 | 0.316 | 0.399 |  | 0.442 | 0.501 | 0.444 |
| NCI-H661 | 0.356 | 0.608 | 0.683 | 0.641 | 0.882 | 1.04 | 1.03 | 1.06 | 0.936 | 0.245 | 0.235 | 0.233 | 0.229 | 0.818 | 0.842 | 0.833 | 0.977 | 0.861 |
| NCI-H727 | 0.599 | 0.678 | 0.504 | 0.514 | 0.602 | 0.694 | 0.396 | 0.357 | 0.324 | 0.402 | 0.247 | 0.266 | 0.322 | 0.39 | 0.241 | 0.404 | 0.448 | 0.34 |
| NCI-H838 | 0.992 | 1.02 | 1.08 | 0.982 | 1.03 | 1.08 | 0.819 | 0.631 | 0.887 | 0.563 | 0.449 | 0.308 | 0.37 | 0.301 | 0.274 | 0.333 | 0.307 | 0.391 |
| NCI-H1355 | 0.825 | 0.831 | 0.937 | 0.933 | 0.828 | 0.929 | 0.87 | 0.701 | 1 | 0.418 | 0.415 | 0.347 | 0.39 | 0.74 | 0.548 | 0.717 | 0.732 | 0.684 |
| NCI-H1395 | 1.04 | 0.922 | 0.992 | 0.998 | 1.02 | 1.05 | 0.84 | 0.932 | 0.921 | 0.428 | 0.42 | 0.5 | 0.481 | 0.425 | 0.476 | 0.42 | 0.443 | 0.417 |
| NCI-H1437 | 0.983 | 0.979 | 0.901 | 1.02 | 1.07 | 1.31 | 1.2 | 1.04 | 1.11 | 0.257 | 0.253 | 0.214 | 0.171 | 0.266 | 0.22 | 0.383 | 0.575 | 0.405 |
| NCI-H1563 | 0.985 | 0.92 | 0.946 | 0.879 | 0.95 | 1 | 0.975 | 0.784 | 0.83 | 0.64 | 0.671 | 0.605 | 0.626 | 0.424 | 0.44 | 0.447 | 0.473 | 0.421 |
| NCI-H1651 | 0.987 | 0.909 | 0.823 | 0.883 | 1.06 | 0.775 | 0.704 | 0.621 | 0.895 | 0.283 | 0.287 | 0.269 | 0.283 | 0.408 | 0.339 | 0.384 | 0.451 | 0.432 |
| NCI-H1666 | 0.799 | 0.977 | 0.949 | 1.02 | 1.16 | 0.925 | 0.909 | 0.778 | 0.784 | 0.554 | 0.529 | 0.635 | 0.487 | 0.783 | 0.747 | 0.89 | 0.797 | 0.802 |
| NCI-H1734 | 0.711 | 0.608 | 0.719 | 0.72 | 0.746 | 0.603 | 0.494 | 0.336 | 0.408 | 0.323 | 0.272 | 0.278 | 0.281 | 0.515 | 0.448 |  | 0.463 | 0.405 |
| NCI-H1755 | 0.879 | 0.905 | 1.02 | 1.03 | 0.909 | 0.914 | 0.729 | 0.85 | 0.89 | 0.638 | 0.55 | 0.53 | 0.547 | 0.381 | 0.426 | 0.463 | 0.48 | 0.466 |
| NCI-H1793 | 0.795 | 0.673 | 0.75 | 0.761 | 0.676 | 0.664 | 0.566 |  | 0.715 | 0.322 | 0.286 |  | 0.306 | 0.393 | 0.388 | 0.376 | 0.416 | 0.405 |
